Laboratory results taken from patent publication US8552066B2, “Modified chalcone compounds as antimitotic agents” (Arizona Biomedical Research Commission, priority 2006, dated 2013).
Like-named read-outs stand apart in the source and are kept apart here.

What was measured:
MIA PaCa-2 cells = test: Growth inhibition assay in pancreatic cancer cell lines (MTS); format: cell-based, human
Procedure: (§1) Growth inhibition assays for determination of GI50 values in pancreatic cancer cell lines were typically carried out essentially as follows. Compounds were individually tested at various concentrations against cancer cells grown in cell culture. The cell viability was determined by use of a standard assay that employs 3-(4,5-dimethylthiazol-2-yl)-5-(3-carboxymethoxyphenyl)-2-(4-sulfophenyl)-2H-tetrazolium, inner salt (MTS), and an electron coupling reagent, phenazine methosulfate (PMS). Absorbance at 490 nm (A490) was measured, and survival curves were obtained by comparison of A490 from treated cells with A490 from untreated cells (control). GI50 values were calculated from nonlinear curve fitting.

NCI-H522 = test: NCI 60-cell-line cancer screen, growth inhibition (SRB); format: cell-based
Procedure: (§2) Cell growth inhibition studies whose results are reported above were carried out at the National Cancer Institute essentially as follows. Cells grown in RPMI 1640 medium containing 5% fetal bovine serum and 2 mM L-glutamine were inoculated into 96-well microtiter plates, which were incubated for 24 hours prior to addition of CMAC-1 at five concentrations. After 48 hours, cold trichloroacetic acid was added, and the plates were washed and air dried. The cells were stained with sulforhodamine B (SRB), and the absorbance was read on an automated plate reader at a wavelength of 515 nm. The percentage growth was calculated at each of the drug concentrations. The growth inhibition of 50% (GI50) was then calculated. The GI50 is the drug concentration resulting in a 50% reduction in the net protein increase (as measured by SRB staining) in control cells during the drug incubation.

CCRF-CEM = test: as above; format: cell-based; details: Leukemia CCRF-CEM, duplicate evaluations
Procedure: as §2

SNB-75 = test: as above; format: cell-based
Procedure: as §2

HT29 = test: as above; format: cell-based
Procedure: as §2

HS 578T = test: as above; format: cell-based; details: Breast HS 578T, duplicate evaluations
Procedure: as §2

MALMI-3M = test: as above; format: cell-based; details: Melanoma MALMI-3M, duplicate evaluations
Procedure: as §2

HL60-(TB) = test: as above; format: cell-based; details: Homo sapiens
Procedure: as §2

OVCAR-3 = test: as above; format: cell-based
Procedure: as §2

MDA-MB-435 = test: as above; format: cell-based; details: Homo sapiens
Procedure: as §2

EKVX = test: as above; format: cell-based; details: NSCLC EKVX, duplicate evaluations
Procedure: as §2

SR = test: as above; format: cell-based; details: Homo sapiens
Procedure: as §2

HOP-62 = test: as above; format: cell-based
Procedure: as §2

NCI-H226 = test: as above; format: cell-based
Procedure: as §2

SW-620 = test: as above; format: cell-based; details: Homo sapiens
Procedure: as §2

NCI-H322M = test: as above; format: cell-based; details: NSCLC NCI-H322M, duplicate evaluations
Procedure: as §2

M14 = test: as above; format: cell-based; details: Homo sapiens; Melanoma M14; 48 hours; duplicate evaluations
Procedure: as §2

RPMI-8226 = test: as above; format: cell-based; details: Homo sapiens
Procedure: as §2

K562 = test: as above; format: cell-based; details: Homo sapiens
Procedure: as §2

SF-539 = test: as above; format: cell-based
Procedure: as §2

SF-268 = test: as above; format: cell-based
Procedure: as §2

NCI-H460 = test: as above; format: cell-based
Procedure: as §2

UACC-257 = test: as above; format: cell-based
Procedure: as §2

MCF7 = test: as above; format: cell-based
Procedure: as §2

U251 = test: as above; format: cell-based
Procedure: as §2

HCT-15 = test: as above; format: cell-based; details: Homo sapiens
Procedure: as §2

SF-295 = test: as above; format: cell-based
Procedure: as §2

NCI/ADR-RES = test: as above; format: cell-based; details: Breast NCI/ADR-RES, duplicate evaluations
Procedure: as §2

OVCAR-8 = test: as above; format: cell-based
Procedure: as §2

[1] = test system: individual cell lines of central nervous system (CNS) cancer; test: NCI 60-cell-line panel, summary by cancer type; format: cell-based
Procedure: as §2

Melanoma = test: NCI 60-cell-line panel, summary by cancer type; format: cell-based
Procedure: as §2

[2] = test system: individual cell lines of prostate cancer; test: NCI 60-cell-line panel, summary by cancer type; format: cell-based
Procedure: as §2

[3] = test system: individual cell lines of ovarian cancer; test: NCI 60-cell-line panel, summary by cancer type; format: cell-based
Procedure: as §2

[4] = test system: individual cell lines of non-small-cell lung cancer (NSCLC); test: NCI 60-cell-line panel, summary by cancer type; format: cell-based
Procedure: as §2

renal cancer = test: NCI 60-cell-line panel, summary by cancer type; format: cell-based
Procedure: as §2

[5] = test system: BxPC-3 (pancreatic) cancer cells; test: Growth inhibition assay in pancreatic cancer cell lines (MTS); format: cell-based; details: read-out: 50% growth inhibition (GI50)
Procedure: as §1

C/C=C/C(=O)SCC(=O)OCc1ccc(/C=C/C(=O)c2cc(OC)c(OC)c(OC)c2)o1 [CMAF-1, 3-[5-(crotonylsulfanylmethylcarbonyloxymethyl)-2-furyl]-1-(3,4,5-trimethoxyphenyl)propenone]
GI50 (MIA PaCa-2 cells; human pancreatic cancer cell (MIA PaCa-2) growth in culture, read-out: GI50): 17000 nM

C/C=C/C(=O)SCC(=O)Oc1cc(/C=C/C(=O)c2cc(OC)c(OC)c(OC)c2)ccc1OC [CMAC-1, 3-[3-(crotonylsulfanylmethylcarbonyloxy)-4-methoxyphenyl]-1-(3,4,5-trimethoxyphenyl)propenone]
melting point: 123 to 125.5 °C
GI50 (NCI-H522; Homo sapiens, NCI-H522, 48 h, NSCLC NCI-H522, duplicate evaluations): 22.4 nM
GI50 (NCI-H522; NSCLC NCI-H522, 48 hours, duplicate evaluations): 15.8 nM
GI50 (CCRF-CEM; Homo sapiens, CCRF-CEM, 48 h): 71.6 nM
GI50 (CCRF-CEM; 48 hours): 86 nM
GI50 (SNB-75; CNS SNB-75, 48 hours, duplicate evaluations): < 10 nM
GI50 (SNB-75; Homo sapiens, SNB-75, 48 h, CNS SNB-75, duplicate evaluations): 16.5 nM
GI50 (HT29; Colon HT29, 48 hours, duplicate evaluations): 1680 nM
GI50 (HT29; Homo sapiens, HT-29, 48 h, Colon HT29, duplicate evaluations): 2870 nM
GI50 (HS 578T; 48 hours): 20.6 nM
GI50 (HS 578T; Homo sapiens, Hs-578T, 48 h): 40.4 nM
GI50 (MALMI-3M; 48 h): 74.2 nM
GI50 (MALMI-3M; 48 hours): 44.7 nM
GI50 (HL60-(TB); HL-60, Leukemia HL60-(TB), 48 hours, duplicate evaluations): < 10 nM
GI50 (HL60-(TB); leukemia HL-60, Table 2): < 10 nM
GI50 (OVCAR-3; Homo sapiens, OVCAR-3, 48 h, Ovarian OVCAR-3, duplicate evaluations): 11.6 nM
GI50 (OVCAR-3; Ovarian OVCAR-3, 48 hours, duplicate evaluations): < 10 nM
GI50 (MDA-MB-435; Breast MDA-MB-435, 48 hours, duplicate evaluations): < 10 nM
GI50 (MDA-MB-435; breast cancer cells MDA-MB-435, Table 2): < 10 nM
GI50 (EKVX; Homo sapiens, EKVX, 48 h): 2090 nM
GI50 (EKVX; 48 hours): 1700 nM
GI50 (SR; Leukemia SR, 48 hours, duplicate evaluations): < 10 nM
GI50 (SR; leukemia SR, Table 2): < 10 nM
GI50 (HOP-62; Homo sapiens, HOP-62, 48 h, NSCLC HOP-62, duplicate evaluations): 1230 nM
GI50 (HOP-62; NSCLC HOP-62, 48 hours, duplicate evaluations): 1000 nM
GI50 (NCI-H226; Homo sapiens, NCI-H226, 48 h, NSCLC NCI-H226, duplicate evaluations): 17200 nM
GI50 (NCI-H226; NSCLC NCI-H226, 48 hours, duplicate evaluations): 11200 nM
GI50 (SW-620; Colon SW-620, 48 hours, duplicate evaluations): < 10 nM
GI50 (SW-620; colon SW-620, Table 2): < 10 nM
GI50 (NCI-H322M; Homo sapiens, NCI-H322M, 48 h): 85.1 nM
GI50 (NCI-H322M; 48 hours): 70.3 nM
GI50 (M14): 62.3 nM
GI50 (RPMI-8226; Leukemia RPMI-8226, 48 hours, duplicate evaluations): < 10 nM
GI50 (RPMI-8226; leukemia RPMI-8226, Table 2): < 10 nM
GI50 (K562; K562, leukemia K-562, Table 2): < 10 nM
GI50 (K562; Leukemia K562, 48 hours, duplicate evaluations): < 10 nM
GI50 (SF-539; CNS SF-539, 48 hours, duplicate evaluations): < 10 nM
GI50 (SF-539; Homo sapiens, 48 h, CNS SF-539, duplicate evaluations): 16.4 nM
GI50 (SF-268; CNS SF-268, 48 hours, duplicate evaluations): 63.8 nM
GI50 (SF-268; Homo sapiens, SF-268, 48 h, CNS SF-268, duplicate evaluations): 81.1 nM
GI50 (NCI-H460; Homo sapiens, NCI-H460, 48 h, NSCLC NCI-H460, duplicate evaluations): 52.4 nM
GI50 (NCI-H460; NSCLC NCI-H460, 48 hours, duplicate evaluations): 33.5 nM
GI50 (UACC-257; Homo sapiens, UACC-257, 48 h, Melanoma UACC-257, duplicate evaluations): 3580 nM
GI50 (UACC-257; Melanoma UACC-257, 48 hours, duplicate evaluations): 4140 nM
GI50 (MCF7; Breast MCF7, 48 hours, duplicate evaluations): 30 nM
GI50 (MCF7; Homo sapiens, MCF7, 48 h, Breast MCF7, duplicate evaluations): 28.5 nM
GI50 (U251; CNS U251, 48 hours, duplicate evaluations): 52.1 nM
GI50 (U251; Homo sapiens, U-251, 48 h, CNS U251, duplicate evaluations): 42.7 nM
GI50 (HCT-15; Colon HCT-15, 48 hours, duplicate evaluations): < 10 nM
GI50 (HCT-15; colon HCT-15, Table 2): < 10 nM
GI50 (SF-295; CNS SF-295, 48 hours, duplicate evaluations): 231 nM
GI50 (SF-295; Homo sapiens, SF-295, 48 h, CNS SF-295, duplicate evaluations): 215 nM
GI50 (NCI/ADR-RES; 48 hours): 32.2 nM
GI50 (NCI/ADR-RES; Homo sapiens, NCI/ADR-RES, 48 h): 26.2 nM
GI50 (OVCAR-8; Homo sapiens, OVCAR-8, 48 h, Ovarian OVCAR-8, duplicate evaluations): 43.9 nM
GI50 (OVCAR-8; Ovarian OVCAR-8, 48 hours, duplicate evaluations): 47.1 nM
GI50 (MIA PaCa-2 cells; Homo sapiens, MIA PaCa-2 pancreatic cancer cells in culture, read-out: concentration required for 50% growth inhibition (GI50)): 16 nM
GI50 [1]: < 50 nM
GI50 (Melanoma): < 75 nM
GI50 [2]: < 50 nM
GI50 [3]: < 50 nM
GI50 [4]: < 50 nM
GI50 (renal cancer): < 150 nM

C=C(Cl)C(=O)Oc1cc(C=CC(=O)c2cc(OC)c(OC)c(OC)c2)ccc1OC [Entry 6, 3-[3-(2-Chloroacryloyloxy)-4-methoxyphenyl]-1-(3,4,5-trimethoxyphenyl)propenone]
GI50 (MIA PaCa-2 cells; MIA PaCa-2 pancreatic cancer cells in culture, read-out: concentration required for 50% growth inhibition (GI50)): 56 nM
GI50 [5]: 4500 nM
